Values of other authors as cited in Sander's compilation of Henry's law constants.
Each block holds one compound with its values, some of them ahead of it.

Assay: Henry solubility constant Hcp at 298.15 K (mol/(m3 Pa))
Settings: cited value
[1] = reference: Burkholder et al. (2015)
[2] = reference: Burkholder et al. (2019)
[3] = reference: Plyasunov et al. (2006)
[4] = reference: Barcelo and Hennion (1997)
[5] = reference: Meylan and Howard (1991)
[6] = reference: Sander et al. (2006)
[7] = reference: Sander et al. (2011)
[8] = reference: Wania and Dugani (2003)
[9] = reference: Gaffney and Senum (1984)

SMILES: CC(Cl)(Cl)Cl [1,1,1-trichloroethane]
Henry solubility constant Hcp (reference: Barr and Newsham (1987)): 0.00058
Henry solubility constant Hcp (reference: Brockbank (2013)): 0.00058
Henry solubility constant Hcp [1]: 0.0006
Henry solubility constant Hcp [2]: 0.0006
Henry solubility constant Hcp (reference: Fogg and Sangster (2003)): 0.00062
Henry solubility constant Hcp (reference: Goldstein (1982)): 0.0022

SMILES: BrC(Br)C(Br)Br [1,1,2,2-tetrabromoethane]
Henry solubility constant Hcp (reference: Brockbank (2013)): 0.014
Henry solubility constant Hcp [2]: 0.014

SMILES: CC(O)CO (centres undefined) [1,2-propanediol]
Henry solubility constant Hcp [1]: 2700
Henry solubility constant Hcp [2]: 2700

Henry solubility constant Hcp (reference: Brockbank (2013)): 1.6e-05
SMILES: C[C@@H]1CCCC[C@H]1C (relative stereo) [trans-1,2-dimethylcyclohexane]

SMILES: CCCCCCCC#N [octanenitrile]
Henry solubility constant Hcp [3]: 0.057

Henry solubility constant Hcp (reference: Brockbank (2013)): 2.9e-06
SMILES: CCCCC(C)C [2-methylhexane]

Henry solubility constant Hcp (reference: Brockbank (2013)): 0.038
SMILES: CCOC(=O)CC [ethyl propanoate]

SMILES: CCN [ethanamine]
Henry solubility constant Hcp (reference: Brockbank (2013)): 0.84
Henry solubility constant Hcp [1]: 0.8
Henry solubility constant Hcp [2]: 0.8

Henry solubility constant Hcp (reference: Brockbank (2013)): 1.5
SMILES: O=C1CCCCC1 [cyclohexanone]

Henry solubility constant Hcp (reference: Brockbank (2013)): 0.17
SMILES: CCOC(=O)c1ccccc1 [ethyl benzoate]

Henry solubility constant Hcp (reference: Brockbank (2013)): 2e-05
SMILES: C=CCCCCC [1-heptene]

Henry solubility constant Hcp [4]: 1.1
SMILES: CCNC(=O)[C@@H](C)OC(=O)Nc1ccccc1 [carbetamide]

SMILES: CN(C)C(=O)Nc1cccc(C(F)(F)F)c1 [fluometuron]
Henry solubility constant Hcp (reference: HSDB (2015)): 3800

SMILES: CCCCC(CC)COC(=O)c1ccccc1C(=O)OCC(CC)CCCC (centres undefined) [bis(2-ethylhexyl)-phthalate]
Henry solubility constant Hcp (reference: Petrasek et al. (1983)): 82

SMILES: O=C1C2CC=CCC2C(=O)N1SC(Cl)(Cl)Cl (centres undefined) [captan]
Henry solubility constant Hcp [4]: 0.016

Henry solubility constant Hcp (reference: Brockbank (2013)): 0.081
SMILES: C1CCOCC1 [tetrahydropyran]

Henry solubility constant Hcp (reference: Brockbank (2013)): 0.6
SMILES: CCC(O)CC [3-pentanol]

SMILES: CCCCN [1-butanamine]
Henry solubility constant Hcp (reference: Brockbank (2013)): 0.54
Henry solubility constant Hcp [1]: 0.56
Henry solubility constant Hcp [2]: 0.56

SMILES: COP(=S)(OC)Oc1ccc(SC)c(C)c1 [fenthion]
Henry solubility constant Hcp [4]: 0.45

SMILES: ClC1=C(Cl)[C@]2(Cl)[C@H]3[C@H]([C@@H]4C=C[C@H]3C4)[C@@]1(Cl)C2(Cl)Cl [aldrin]
Henry solubility constant Hcp [4]: 0.00011
Henry solubility constant Hcp [5]: 0.02

Henry solubility constant Hcp (reference: Brockbank (2013)): 0.05
SMILES: CCCCCCC(C)=O [2-octanone]

SMILES: ClN(Cl)Cl [nitrogen trichloride]
Henry solubility constant Hcp [1]: 0.00099
Henry solubility constant Hcp [2]: 0.00099
Henry solubility constant Hcp [6]: 0.00099
Henry solubility constant Hcp [7]: 0.00099

Henry solubility constant Hcp (reference: Brockbank (2013)): 0.00026
SMILES: C#CCCCC [1-hexyne]

SMILES: Brc1ccc(Oc2cc(Br)c(Br)cc2Br)c(Br)c1 [2,2',4,4',5-pentabromodiphenyl ether]
Henry solubility constant Hcp [8]: 1.9

SMILES: CC[N+](=O)[O-] [nitroethane]
Henry solubility constant Hcp (reference: Brockbank (2013)): 0.21
Henry solubility constant Hcp [1]: 0.21
Henry solubility constant Hcp [2]: 0.21
Henry solubility constant Hcp [9]: 0.21
Henry solubility constant Hcp [6]: 0.21
Henry solubility constant Hcp [7]: 0.21

SMILES: O=[N+]([O-])c1cccc(O)c1 [3-nitrophenol]
Henry solubility constant Hcp [9]: 4900

SMILES: CCCC(C)=O [2-pentanone]
Henry solubility constant Hcp (reference: Brockbank (2013)): 0.13
Henry solubility constant Hcp (reference: Mackay et al. (1995)): 0.17

SMILES: CCOC(=O)C(F)(F)F [trifluoroethanoic acid, ethyl ester]
Henry solubility constant Hcp [1]: 0.00089
Henry solubility constant Hcp [2]: 0.00089
Henry solubility constant Hcp [7]: 0.00089

SMILES: OCC(F)F [2,2-difluoroethanol]
Henry solubility constant Hcp [1]: 0.93
Henry solubility constant Hcp [2]: 0.93

Henry solubility constant Hcp (reference: Brockbank (2013)): 0.00091
SMILES: CCCc1ccccc1 [propylbenzene]

SMILES: C[Si](Cn1cncn1)(c1ccc(F)cc1)c1ccc(F)cc1 [flusilazole]
Henry solubility constant Hcp [4]: 27

Henry solubility constant Hcp (reference: Brockbank (2013)): 2.1e-05
SMILES: CCC1CCCCC1 [ethylcyclohexane]

Henry solubility constant Hcp (reference: Brockbank (2013)): 0.92
SMILES: Cc1cccc(C)n1 [2,6-dimethylpyridine]

SMILES: CCC(C)Br (centres undefined) [2-bromobutane]
Henry solubility constant Hcp (reference: Brockbank (2013)): 0.00088

SMILES: CN(C)C(=S)SSC(=S)N(C)C [thiram]
Henry solubility constant Hcp (reference: MacBean (2012b)): 30

Henry solubility constant Hcp [4]: 36
SMILES: CN(C)C(=O)Nc1ccccc1 [fenuron]

Henry solubility constant Hcp (reference: Brockbank (2013)): 0.0029
SMILES: Cc1ccc(C)c(C)c1C [1,2,3,4-tetramethylbenzene]

SMILES: OC[C@@H](O)[C@@H](O)CO [2(R),3(S)-1,2,3,4-butanetetrol]
Henry solubility constant Hcp [1]: 1.1e+10
Henry solubility constant Hcp [2]: 1.1e+10

SMILES: FC(F)(F)Cl [chlorotrifluoromethane]
Henry solubility constant Hcp [1]: 9.9e-06
Henry solubility constant Hcp [2]: 9.9e-06
Henry solubility constant Hcp [7]: 9.9e-06

SMILES: Nc1c(Cl)c(Cl)nc(C(=O)O)c1Cl [picloram]
Henry solubility constant Hcp [4]: 290

SMILES: CC(C)(C)c1cc([N+](=O)[O-])cc([N+](=O)[O-])c1O [dinoterb]
Henry solubility constant Hcp [4]: 1.7

SMILES: CS [methanethiol]
Henry solubility constant Hcp [1]: 0.0038
Henry solubility constant Hcp [2]: 0.0038
Henry solubility constant Hcp (reference: Goldstein (1982)): 0.0026
Henry solubility constant Hcp [6]: 0.0038
Henry solubility constant Hcp [7]: 0.0038

SMILES: COP(=O)(OC)C(O)C(Cl)(Cl)Cl (centres undefined)
Henry solubility constant Hcp [4]: 5800

SMILES: CC(Cc1ccc(C(C)(C)C)cc1)CN1C[C@@H](C)O[C@@H](C)C1 (some centres undefined) [fenpropimorph]
Henry solubility constant Hcp [4]: 0.062

Henry solubility constant Hcp (reference: Brockbank (2013)): 0.21
SMILES: CCCCCCCC(C)O (centres undefined) [2-nonanol]

SMILES: Brc1ccc(Oc2ccc(Br)cc2Br)c(Br)c1 [2,2',4,4'-tetrabromodiphenyl ether]
Henry solubility constant Hcp [8]: 0.9

SMILES: BrC(Br)Br [tribromomethane]
Henry solubility constant Hcp (reference: Brockbank (2013)): 0.018
Henry solubility constant Hcp [1]: 0.017
Henry solubility constant Hcp [2]: 0.017
Henry solubility constant Hcp (reference: Goldstein (1982)): 0.018
Henry solubility constant Hcp (reference: Nicholson et al. (1984)): 0.017
Henry solubility constant Hcp [6]: 0.017
Henry solubility constant Hcp [7]: 0.017

Henry solubility constant Hcp (reference: Brockbank (2013)): 2.9e-06
SMILES: CC(C)CC(C)C [2,4-dimethylpentane]

SMILES: CCCCCC#N [hexanenitrile]
Henry solubility constant Hcp [3]: 0.12

Henry solubility constant Hcp (reference: Brockbank (2013)): 1.3e-06
SMILES: CCCCCCCCCC [decane]

Henry solubility constant Hcp (reference: Brockbank (2013)): 17
SMILES: OCCc1ccccc1 [2-phenylethanol]

Henry solubility constant Hcp (reference: Brockbank (2013)): 1.6
SMILES: Cc1ccncc1 [4-methylpyridine]

SMILES: Cc1cc2ccccc2cc1C [2,3-dimethylnaphthalene]
Henry solubility constant Hcp [5]: 0.011

SMILES: O=C(Nc1ccccc1)Nc1ccnc(Cl)c1 [forchlorfenuron]
Henry solubility constant Hcp (reference: MacBean (2012b)): 3.5e+06

SMILES: OCC(F)(F)C(F)(F)F [2,2,3,3,3-pentafluoro-1-propanol]
Henry solubility constant Hcp [1]: 0.14
Henry solubility constant Hcp [2]: 0.14
Henry solubility constant Hcp [7]: 0.14

SMILES: CCN(CC)c1ccccc1 [(diethylamino)-benzene]
Henry solubility constant Hcp (reference: Brockbank (2013)): 0.067

SMILES: FC(F)(Cl)Cl [dichlorodifluoromethane]
Henry solubility constant Hcp (reference: Brockbank (2013)): 3.1e-05
Henry solubility constant Hcp [1]: 3e-05
Henry solubility constant Hcp [2]: 3e-05
Henry solubility constant Hcp (reference: Goldstein (1982)): 3.5e-06
Henry solubility constant Hcp [6]: 3e-05
Henry solubility constant Hcp [7]: 3e-05

SMILES: [N]=O [nitrogen monoxide]
Henry solubility constant Hcp (reference: Loomis (1928)): 1.9e-05
Henry solubility constant Hcp [6]: 1.9e-05
Henry solubility constant Hcp [7]: 1.9e-05
Henry solubility constant Hcp (reference: Schwartz and White (1981)): 1.9e-05
Henry solubility constant Hcp (reference: Young (1981b)): 1.9e-05

SMILES: Clc1cccc(Cl)c1Cl [1,2,3-trichlorobenzene]
Henry solubility constant Hcp (reference: Brockbank (2013)): 0.0062

Henry solubility constant Hcp (reference: Brockbank (2013)): 0.43
SMILES: CCCCCN [1-pentanamine]

SMILES: Nc1ccc(Cl)cc1 [1-amino-4-chlorobenzene]
Henry solubility constant Hcp (reference: Howard (1989)): 0.92
